Here are results for one compound from patent publication US10780061B2, “Composition comprising farnesol and use thereof” (Daegu Gyongbuk Institute of Science and Technology, priority 2014, dated 2020).

The subject of one experiment is SDH enzyme activity. Briefly: SDH staining of hind limb muscles, high fat diet model. The experiment is classed as in vivo, mouse. The conditions noted are these: high fat diet with 0.5% compound, 3 months. The text has this: (§1) To prepare the PGC-1α-inhibited model, 3-month-old mouse (female, body weight of 20 g) is fed with high fat diet, in which fat is increased to 60%, compared to a negative control group, for 5 days (short-term effect) or 3 months (long-term effect). The negative control group is fed with a general diet. Farnesol is mixed in the high fat diet at a content of 0.5% (weight of farnesol/weight of diet). A positive control group is fed with high fat diet containing a type II diabetes drug, metformin at a content of 0.5% (weight of metformin/weight of diet). Mice are fed with the general diet, the high fat diet, and the high fat diet containing farnesol or metformin for 3 months, and then hind limbs are removed to analyze muscle differentiation and mitochondrial enzyme activity.

Experiment [1] in a line: Energy expenditure of old mice (Oxylet calorimetry). The experiment is classed as in vivo, mouse. Particulars: farnesol diet 4 months. The method, then: 22-month-old female mice (weighing 30 g) are fed with a control diet and a farnesol diet for 4 months. That is, 22-month-old mice are fed for 4 months, and then 26-month-old mice are analyzed. […] The same mouse is used as a control group, except that it is fed with a diet containing no farnesol. Muscle strength, energy expenditure, glucose tolerance, and fat accumulation of each mouse are evaluated. […] To measure energy expenditures of old mice administered with farnesol, mice are bred in a measurement apparatus, Oxylet system (calorimetry apparatus, Panlab Harvard apparatus) for 2 days. A METABOLISM software connected with metabolic measurement modules is used for analysis of energy expenditure.

Experiment [2] deals with C2C12 myoblasts introduced with FLAG-PARIS WT or C631S. Briefly: Differentiation of PARIS WT or PARIS C631S gene-introduced C2C12 myoblasts (Mhc immunostaining). The experiment is classed as cell-based. The conditions noted are these: C2C12, 0.1 M farnesol, 24 hours. On the procedure: Additionally, it is examined whether the presence of farnesol affects farnesylation of PARIS protein in skeletal muscles. To this end, the FLAG-PARIS wild-type (WT) gene or the FLAG-PARIS C631S mutant (hereinafter, referred to as MT) gene is overexpressed in C2C12 myoblasts, and then farnesol is treated thereto, followed by measurement of differentiation. The muscles of mice are introduced with AAV-GFP, AAV-PARIS WT or AAV-PARIS C631S viral vector, and mice are bred by feeding with farnesol, followed by measurement of mitochondrial enzyme activity.
In FIG. 5D, C2C12 myoblasts are introduced with FLAG-PARIS wild-type (WT) gene or FLAG-PARIS C631S mutant (hereinafter, referred to as “MT”) gene, and cultured in the presence of […] farnesol in DMEM containing 10% FBS for 24 hours, followed by measurement of muscle differentiation and mitochondrial enzyme activity. Muscle differentiation is examined by immunostaining using a muscle differentiation marker, Mhc. […] The percentage of Mhc-negative nuclei indicates the cells showing no formation of red-colored myotube among the nucleus-stained myoblasts of A.

For experiment [3], the system named is Myh2a-positive muscle fibers. Description: Myh2a immunostaining of hind limb muscles, high fat diet (PGC-1α-inhibited) model. The experiment is classed as in vivo, mouse. The conditions noted are these: high fat diet with 0.5% compound, 3 months.
Source text: as §1
In FIG. 6C, SD represents a standard diet as a negative control group, HFD represents a high fat diet, and HFD+Farnesol or HFD-metformin represents farnesol or metformin-added HFD, respectively.

The subject of experiment [4] is AAV-PARIS WT or C631S-introduced tibialis anterior muscles. Briefly: SDH staining of muscles introduced with AAV-PARIS WT or AAV-PARIS C631S. The experiment is classed as in vivo, mouse. The conditions noted are these: 5-month-old mice, farnesol diet 1 week, 4 days after virus. On the procedure:
5-month-old C57BL/6 male mice (body weight of 22 g) are fed with a control diet or a farnesol-containing diet for 1 week, and then AAV-GFP, AAV-PARIS WT or AAV-PARIS C631S virus is injected into tibialis anterior muscles. Feeding conditions, not mentioned, are the same as in Section 2 of Example 2. After 4 days, the muscles are collected and histological staining is performed to analyze mitochondrial enzyme activity. The staining is performed by SDH enzyme activity staining. Viral transduction efficiency is evaluated by GFP fluorescence.

The test system of experiment [5] is PARIS-overexpressing muscles. Description: SDH staining of PARIS-overexpressing tibialis anterior muscles. Format: in vivo, mouse. The conditions noted are these: 22-month-old mice, PARIS-GFP adenovirus in tibialis anterior muscle, 4 days. The method, then:
Control-GFP adenovirus and PARIS-GFP adenovirus are injected into the tibialis anterior muscles of 22-month-old mice (female, body weight of 30 g), respectively. The old mice are fed with a predetermined diet, and 4 days later, muscles are collected and subjected to histological staining and qRT-PCR. For PARIS overexpression, human full-length PARIS cDNA (IMAGE: 30347892; Open Biosystems) (SEQ ID NO:9) is introduced into BamH1 and EcoR1 restriction sites of a viral vector, AAV/CBA-WPRE-bGHpA (containing chicken beta-actin (CBA) promoter and woodchuck hepatitis virus post-transcriptional-regulatory element (WPRE), and bovine growth hormone polyadenylation signal sequence) to prepare a full-length PARIS cDNA-containing AAV/CBA-WPRE-bGHpA vector, and this vector is introduced into the adenovirus-introduced cells. A high titer adenovirus […] is a viral vector manufactured by Viral Vector Core Facility (University of Iowa Carver College). Virus transduction efficiency is evaluated by GFP fluorescence. To evaluate PARIS overexpression and administration effect of farnesol, frozen sections of tibialis anterior muscles are stained for SDH enzyme activity.
Further, similar to the result in C2C12 myoblast models, an oxidative metabolism reduced by PARIS overexpression is also recovered by farnesol treatment in animal models. […]

Experiment [6] in a line: Fat mass ratio by dual-energy X-ray absorptiometry. Format: in vivo. The conditions noted are these: old mouse, farnesol diet 4 months. The method, then:
22-month-old female mice (weighing 30 g) are fed with a control diet and a farnesol diet for 4 months. That is, 22-month-old mice are fed for 4 months, and then 26-month-old mice are analyzed. […] The same mouse is used as a control group, except that it is fed with a diet containing no farnesol. Muscle strength, energy expenditure, glucose tolerance, and fat accumulation of each mouse are evaluated.
The fat mass ratio is determined by dual-energy X-ray absorptiometry (LUNA PIXIMUS, GE Healthcare/LUNA), and measured on combined images after radiation at 40 kV X-ray and 80 kV X-ray four times, respectively.

For `CC(C)=CCC/C(C)=C/CC/C(C)=C/CO` [farnesol, (2E,6E)-3,7,11-trimethyldodeca-2,6,10-trien-1-ol], the “percentage of muscle fibers showing increased SDH enzyme activity” value in the experiment on SDH enzyme activity is reported as “increased”. Further, the energy expenditure result in experiment [1] is listed as “significantly increased”. In experiment [2], the “percentage of Mhc-negative nuclei, FLAG-PARIS C631S” value is “does not significantly decrease” and the “percentage of Mhc-negative nuclei, FLAG-PARIS WT” value is “significantly decreases”. Besides, in experiment [3], the “percentage of Myh2a-postive muscle fibers” value is “significantly increases”. Further, the “reduction in mitochondrial enzyme activity (SDH), AAV-PARIS WT-introduced muscles” value in experiment [4] is on record as “inhibits a reduction”. Moreover, the “oxidative metabolism (SDH staining) reduced by PARIS overexpression” value in experiment [5] is “recovered”. In experiment [6], the fat mass ratio result was “significantly decreased”.
